Source: US20210315893A1 (Galapagos NV, priority 2017, published 2021)

Experiments:
[1] = molecular target: T1, S1PR2 (Homo sapiens, UniProt O95136); test: S1PR2 binding assay (competition with radioactively labeled S1P, SpA); conditions: membranes from stable cell line over expressing S1PR2, SpA beads; read-out: S1P2 EC50 (nM), S1PR2 binding EC50
T1 construct: expressed in transfected cells
In short: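 Scintillation proximity read-out after 2 h room-temperature incubation of compound, [3H]S1P and S1PR2-overexpressing cell membranes on WGA-coated beads. Buffer: 20 mM Tris pH 7.5, 100 mM NaCl, 10 mM MgCl2, 1 mM Na3VO4, 0.4% fatty-acid-free BSA; plates counted immediately after centrifugation.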

[2] = molecular target: T2, human GPCR sphingosine 1-phosphate receptor 2 (Homo sapiens, UniProt O95136); test: S1PR2 antagonist Ca2+ flux assay; assay type: cell-based; conditions: antagonist mode, CHO-S1PR2 cells, S1P at EC80, Ca2+ fluorescence; read-out: S1P2 EC50 (nM), S1P2 antagonist EC50
T2 construct: host or cells: CHO
In short: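 Antagonist mode: 15 min after compound addition, S1P (EC80) stimulates Fluo8-loaded, 1 h-starved CHO-S1PR2 cells, Ca2+ read over 3 min; a prior 3-min read checks compound agonism. EC50 from peak/baseline fluorescence ratio, normalised versus vehicle and S1P EC50 (antagonist) or EC100 (agonist).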

[3] = tested on: HFL-1 cells; test: IL8 assay in the presence of Human Serum Albumin; conditions: HFL1, read-out: HSA IL8 EC50
[4] = tested on: HFL-1 cells; test: IL-8 production assay (S1P induced IL-8); assay type: cell-based; conditions: Homo sapiens, HFL1; S1P (1 μM) induced IL-8 in HFL-1 cells, starvation medium without HSA; read-out: IL8 EC50
Procedure: This assay is designed to test inhibitory activity of compounds on S1P induced IL-8 on HFL-1 cells, ahuman fetal lung fibroblast cell line.
Human Fetal Lung cells (HFL-1) are seeded in 96 well plates in growth medium (F12K+10% heat inactivated FBS+l1% Pen/strep). After overnight incubation at 37° C., […] cells are refreshed with starvation medium without HSA (F12K+1% FBS+1% Pen/strep). On day three, compounds are added (10 point serial dilution, 30 μM highest concentration, 1/3 dilution, 0.3% DMSO final) and plates are incubated for one h at 37° C., 5% CO2. Subsequently S1P at 1 μM final concentration is added and plates are incubated for 16 to24 h at 37° C., […] after which the supermatant was collected. IL-8 levels in the supernatant are determined with the IL-8 ELISA of R&D systems.

T1 sequence (O95136 whole entry): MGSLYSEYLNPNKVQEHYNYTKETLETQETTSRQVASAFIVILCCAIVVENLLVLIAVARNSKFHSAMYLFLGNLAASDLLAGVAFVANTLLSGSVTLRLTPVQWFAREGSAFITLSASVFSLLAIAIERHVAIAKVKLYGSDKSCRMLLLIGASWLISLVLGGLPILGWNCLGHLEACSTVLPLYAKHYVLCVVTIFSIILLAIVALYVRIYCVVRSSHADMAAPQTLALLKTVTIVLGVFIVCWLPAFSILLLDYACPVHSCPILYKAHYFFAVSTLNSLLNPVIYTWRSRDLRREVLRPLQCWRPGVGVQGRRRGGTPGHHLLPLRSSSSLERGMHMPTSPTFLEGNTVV
T2 sequence (O95136 whole entry): as above

Compound | EC50 [1] [nM] | EC50 [2] [nM] | EC50 [3] [nM] | EC50 [4] [nM]
O=C(O)c1nn(Cc2nc3cc(OCC4CC4)c(C(F)(F)F)cc3[nH]2)c2ccccc2c1=O [Compound 104, (1-[[5-(cyclopropylmethoxy)-6-(trifluoromethyl)-1H-benzimidazol-2-yl]methyl]-4-oxocinnoline-3-carboxylic acid)] | 22.4 | 3.02 | 27 | 4.55
O=C(O)Cc1nn(Cc2nc3cc(OCC4CC4)c(Br)cc3[nH]2)c2ccccc2c1=O [Compound 109, 2-[1-[[6-bromo-5-(cyclopropylmethoxy)-1H-benzimidazol-2-yl]methyl]-4-oxo-cinnolin-3-yl]acetic acid] | 3.84 | 2.32 | 2.03 | 0.137
CCOc1cc2[nH]c(Cc3nn(CC(=O)O)c(=O)c4c3CCCC4)nc2cc1Cl [Compound 121, 2-[4-[(5-chloro-6-ethoxy-1H-benzimidazol-2-yl)methyl]-1-oxo-5,6,7,8-tetrahydrophthalazin-2-yl]acetic acid] | 84.8 | 6.23 | 50.8 | 6.35
CC1(COc2cc3nc(Cc4nn(CC(=O)O)c(=O)c5ccccc45)[nH]c3cc2Cl)CC1 [Compound 131, 2-[4-[[5-chloro-6-[(1-methylcyclopropyl)methoxy]-1H-benzimidazol-2-yl]methyl]-1-oxo-phthalazin-2-yl]acetic acid] | 197 | 13.2 | 267 | 12
CC(C)(C)COc1cc2nc(Cc3nn(CC(=O)O)c(=O)c4ccccc34)[nH]c2cc1Cl [Compound 132] | 649 | 26.4 | 800 | 97.3
N#Cc1cc2nc(Cc3nn(CC(=O)O)c(=O)c4ccccc34)[nH]c2cc1OCC(F)F [Compound 139] | 159 | 119 | 28 | 5.39
CCOc1cc2nc(Cc3nn(CC(=O)N4CCOCC4)c(=O)c4ccccc34)[nH]c2cc1F [Compound 157, 4-[(5-ethoxy-6-fluoro-1H-benzimidazol-2-yl)methyl]-2-(2-morpholino-2-oxo-ethyl)phthalazin-1-one] | 618 | 106 | 1220 | 780
N#Cc1cc2[nH]c(Cc3nn(CC(=O)N4CCOCC4)c(=O)c4ccccc34)nc2cc1OCC1CC1 [Compound 158, 6-(cyclopropylmethoxy)-2-[[3-(2-morpholino-2-oxo-ethyl)-4-oxo-phthalazin-1-yl]methyl]-3H-benzimidazole-5-carbonitrile] | 18.6 | 3.98 | 11 | 1.5
CC1(COc2cc3[nH]c(Cc4nn(CC(=O)N5CCOCC5)c(=O)c5ccccc45)nc3cc2Cl)CC1 [Compound 163, 4-[[5-chloro-6-[(1-methylcyclopropyl)methoxy]-1H-benzimidazol-2-yl]methyl]-2-(2-morpholino-2-oxo-ethyl)phthalazin-1-one] | 109 | 11.6 | 107 | 12.6
O=C(Cn1nc(Cc2nc3cc(Cl)c(OCC4CC4)cc3[nH]2)c2ccccc2c1=O)N1CCOCC1 [Compound 166, 4-[[5-chloro-6-(cyclopropylmethoxy)-1H-benzimidazol-2-yl]methyl]-2-(2-morpholino-2-oxo-ethyl)phthalazin-1-one] | 22.4 | 9.34 | 3.3 | 1.41
COC(C)(C)CNC(=O)Cn1nc(Cc2nc3cc(OCC(F)F)c(C#N)cc3[nH]2)c2ccccc2c1=O [Compound 182, 2-[4-[[6-cyano-5-(2,2-difluoroethoxy)-1H-benzimidazol-2-yl]methyl]-1-oxo-phthalazin-2-yl]-N-(2-methoxy-2-methyl-propyl)acetamide] | 53.4 | 17.3 | 54.7 | 9.66
COCCN(C)C(=O)Cn1nc(Cc2nc3cc(OCC(F)F)c(C#N)cc3[nH]2)c2ccccc2c1=O [Compound 183, 2-[4-[[6-cyano-5-(2,2-difluoroethoxy)-1H-benzimidazol-2-yl]methyl]-1-oxo-phthalazin-2-yl]-N-(2-methoxyethyl)-N-methyl-acetamide] | 307 | 76 | 430 | 196
N#Cc1cc2[nH]c(Cc3nn(CC(=O)NC4CCCOC4)c(=O)c4ccccc34)nc2cc1OCC(F)F (stereo not shown) [Compound 184, 2-[4-[[6-cyano-5-(2,2-difluoroethoxy)-1H-benzimidazol-2-yl)methyl]-1-oxo-phthalazin-2-yl]-N-tetrahydropyran-3-yl-acetamide] | 94.3 | 25.2 | 82.3 | 23.8
N#Cc1cc2nc(Cc3nn(CC(=O)N4CCC(F)(F)CC4)c(=O)c4c3CCCC4)[nH]c2cc1OCC(F)F [Compound 185, 6-(2,2-difluoroethoxy)-2-[[3-[2-(4,4-difluoro-1-piperidyl)-2-oxo-ethyl]-4-oxo-5,6,7,8-tetrahydrophthalazin-1-yl]methyl]-1H-benzimidazole-5-carbonitrile] | 166 | 30.4 | 302 | 93.7

The remaining compounds from weak to strong by EC50 [1], led by results:

EC50 [1] [nM] | EC50 [2] [nM] | EC50 [3] [nM] | EC50 [4] [nM] | Compound
297 | 95.8 | 906 | 544 | N#CCCN(C(=O)Cn1nc(Cc2nc3cc(OCC(F)F)c(C#N)cc3[nH]2)c2ccccc2c1=O)C1CC1 [Compound 181, 2-[4-[[6-cyano-5-(2,2-difluoroethoxy)-1H-benzimidazol-2-yl]methyl]-1-oxo-phthalazin-2-yl]-N-(2-cyanoethyl)-N-cyclopropyl-acetamide]
263 | 14.8 | 267 | 33.3 | N#CC1(COc2cc3nc(Cc4nn(CC(=O)O)c(=O)c5ccccc45)[nH]c3cc2Cl)CC1 [Compound 133, 2-[4-[[5-chloro-6-[(1-cyanocyclopropyl)methoxy]-1H-benzimidazol-2-yl]methyl]-1-oxo-phthalazin-2-yl]acetic acid]
229 | 14.7 | 230 | 49.5 | CC(C(=O)N1CCOCC1)n1nc(Cc2nc3cc(OCC4CC4)c(Cl)cc3[nH]2)c2ccccc2c1=O (stereo not shown) [Compound 155, 4-(6-Chloro-5-cyclopropylmethoxy-1H-benzoimidazol-2-ylmethyl)-2-(1-methyl-2-morpholin-4-yl-2-oxo-ethyl)-2H-phthalazin-1-one]
93.9 | 21.1 | 67 | 28.3 | CN(CC1CCCO1)C(=O)Cn1nc(Cc2nc3cc(OCC(F)F)c(C#N)cc3[nH]2)c2ccccc2c1=O (stereo not shown) [Compound 180, 2-[4-[[6-cyano-5-(2,2-difluoroethoxy)-1H-benzimidazol-2-yl)methyl]-1-oxo-phthalazin-2-yl]-N-methyl-N-(THF-2-ylmethyl)acetamide]
75.1 | 9.07 | 8.27 | 4.44 | C[C@@H]1CN(C(=O)Cn2nc(Cc3nc4cc(Cl)c(OCC5(C#N)CC5)cc4[nH]3)c3ccccc3c2=O)C[C@H](C)O1 [Compound 162, 1-[[6-chloro-2-[[3-[2-[(2S,6R)-2,6-dimethylmorpholin-4-yl]-2-oxo-ethyl]-4-oxo-phthalazin-1-yl]methyl]-3H-benzimidazol-5-yl]oxymethyl]cyclopropanecarbonitrile]
35.3 | 3.02 | 110 | 10.6 | O=C(O)Cc1nn(Cc2cn3cc(OCC4CC4)c(Cl)cc3n2)c2c(c1=O)CCCC2 [Compound 105, 2-[1-[[7-chloro-6-(cyclopropylmethoxy)imidazo[1,2-a]pyridin-2-yl]methyl]-4-oxo-5,6,7,8-tetrahydrocinnolin-3-yl]acetic acid]
34.7 | 13.6 | 43.7 | 7.11 | O=C(Cn1nc(Cc2nc3cc(Cl)c(OCC(F)F)cc3[nH]2)c2ccccc2c1=O)N1CCOCC1 [Compound 151, 4-[[5-chloro-6-(2,2-difluoroethoxy)-1H-benzimidazol-2-yl]methyl]-2-(2-morpholino-2-oxo-ethyl)phthalazin-1-one]
15.2 | 13.8 | 179 | 21.6 | O=C(Cn1nc(Cn2cc3cc(OCC4CC4)c(Cl)cc3n2)c2ccccc2c1=O)N[C@H]1CCC[C@@H]1O [Compound 143, 2-[4-[[6-chloro-5-(cyclopropylmethoxy)indazol-2-yl]methyl]-1-oxo-phthalazin-2-yl]-N-[(1S,2S)-2-hydroxycyclopentyl]acetamide]
